Reference: ChEMBL document CHEMBL3046836, “Laboratory assays of select candidate insecticides for control of Dendroctonus ponderosae” (2011)
Converted amounts (≈) assume the structure as drawn. “And” between values parts separate entries of the source, which are not always exact repeats. Equal values may be shown once. The source made the active and inactive calls. The rule behind the calls is not given here.

Experiments:
Format in all cases: functional
Dendroctonus ponderosae [1] = assay: Insecticidal activity against adult male Dendroctonus ponderosae assessed as mortality applied topically to ventral surface of insect mesothorax after 24 hr
Dendroctonus ponderosae [2] = assay: Insecticidal activity against adult female Dendroctonus ponderosae assessed as mortality applied topically to ventral surface of insect mesothorax after 24 hr
Dendroctonus ponderosae [3] = assay: Insecticidal activity against adult male Dendroctonus ponderosae assessed as mortality after 24 hr by filter paper assay
Dendroctonus ponderosae [4] = assay: Insecticidal activity against adult Dendroctonus ponderosae assessed as mortality applied topically to ventral surface of insect mesothorax after 24 hr
Dendroctonus ponderosae [5] = assay: Insecticidal activity against adult Dendroctonus ponderosae assessed as mortality after 24 hr by filter paper assay
Dendroctonus ponderosae [6] = assay: Insecticidal activity against adult Dendroctonus ponderosae assessed as mortality after 12 hr by filter paper assay
Dendroctonus ponderosae [7] = assay: Insecticidal activity against adult female Dendroctonus ponderosae assessed as mortality after 24 hr by filter paper assay
Dendroctonus ponderosae [8] = assay: Insecticidal activity against adult Dendroctonus ponderosae assessed as mortality applied topically on the ventral surface of insect mesothorax after 12 hr; settings: topical
[9] = Dendroctonus ponderosae, topical, 24 h, read-out: LC50
[10] = Dendroctonus ponderosae, 24 h, read-out: LC50

Row | Structure (SMILES) | LC50 (Dendroctonus ponderosae [1]) | LC50 (Dendroctonus ponderosae [2]) | LC50 (Dendroctonus ponderosae [2]; [9]) | LC50 (Dendroctonus ponderosae [3]) | LC50 (Dendroctonus ponderosae [3]; [10]) | LC50 (Dendroctonus ponderosae [4]) | LC50 (Dendroctonus ponderosae [4]; [9]) | LC50 (Dendroctonus ponderosae [5]) | LC50 (Dendroctonus ponderosae [6]) | LC50 (Dendroctonus ponderosae [6]; Dendroctonus ponderosae, 12 h, read-out: LC50) | LC50 (Dendroctonus ponderosae [1]; [9]) | LC50 (Dendroctonus ponderosae [7]) | LC50 (Dendroctonus ponderosae [8]) | LC50 (Dendroctonus ponderosae [5]; [10])
1 | CNC(=O)c1cc(C#N)cc(C)c1NC(=O)c1cc(Br)nn1-c1ncccc1Cl [CYANTRANILIPROLE] | 301.5 µg/mL and 102 µg/mL | 164.8 µg/mL (≈ 348 µM) | 258 µg/mL (≈ 544 µM) | 1.7 µg/mL (≈ 3.59 µM) | 3.4 µg/mL (≈ 7.18 µM) | 141.5 µg/mL (≈ 299 µM) | 271 µg/mL (≈ 571 µM) | 3 µg/mL and 6.2 µg/mL | 46.1 µg/mL (≈ 97.3 µM) | 56.8 µg/mL (≈ 120 µM) | – | – | – | –
2 | CNC(=O)c1cc(Cl)cc(C)c1NC(=O)c1cc(Br)nn1-c1ncccc1Cl [CHLORANTRANILIPROLE] | – | – | 1110 µg/mL (≈ 2300 µM) | – | 11 µg/mL (≈ 22.8 µM) | – | 1380 µg/mL (≈ 2870 µM) | – | inactive | – | 1750 µg/mL (≈ 3620 µM) | 72.7 µg/mL (≈ 150 µM) | 6300 µg/mL (≈ 13000 µM) | 34.9 µg/mL (≈ 72.2 µM)
